“And” between values parts separate entries of the source, which are not always exact repeats. Equal values may be shown once. Inconclusive results and toxic doses are left out.
Tested on: P388 leukemia ip, CD2F1 mice, survival T/C
Assay: NCI In Vivo Anticancer Drug Screen. Data for tumor model P388 Leukemia (intraperitoneal) in CD2F1 (CDF1) mice
Conditions: endpoint: median survival time, higher = longer survival
Procedure, shortened: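 Mice carrying the transplanted tumor received test compound or vehicle. Survival was recorded in each group, and the value is the treated-group measurement divided by that of the vehicle-treated control group.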

[1] = dose: 50.0 mg/kg/injection, schedule: Q01DX009 (ip), vehicle: saline with Tween-80
[2] = dose: 100.0 mg/kg/injection, schedule: Q01DX009 (ip), vehicle: saline with Tween-80
[3] = dose: 50.0 mg/kg/injection, schedule: Q01DX009 (ip), vehicle: saline
[4] = dose: 100.0 mg/kg/injection, schedule: Q01DX009 (ip), vehicle: saline
[5] = dose: 200.0 mg/kg/injection, schedule: Q01DX009 (ip), vehicle: saline
[6] = dose: 60.0 mg/kg/injection, schedule: Q01DX005 (ip), vehicle: Klucel (hydroxypropylcellulose) (HPC)
[7] = dose: 120.0 mg/kg/injection, schedule: Q01DX005 (ip), vehicle: Klucel (hydroxypropylcellulose) (HPC)
[8] = dose: 240.0 mg/kg/injection, schedule: Q01DX005 (ip), vehicle: Klucel (hydroxypropylcellulose) (HPC)
[9] = dose: 25.0 mg/kg/injection, schedule: Q01DX009 (ip), vehicle: saline
[10] = dose: 100.0 mg/kg/injection, schedule: Q04DX003 (ip), vehicle: saline with Tween-80

`CN1CCC2(C)CC1Cc1ccc(O)cc12` (stereo not drawn) was tested, and the T/C (dose: 3.12 mg/kg/injection, schedule: Q01DX005 (ip), vehicle: saline) was 96 % of control, the T/C (dose: 6.25 mg/kg/injection, schedule: Q01DX005 (ip), vehicle: saline) was 104 % of control and the T/C (dose: 12.5 mg/kg/injection, schedule: Q01DX005 (ip), vehicle: saline) was 105 % of control. For the same compound, the T/C (dose: 25.0 mg/kg/injection, schedule: Q01DX005 (ip), vehicle: saline) was 96 % of control.

With `C=C(C#N)COc1ccc(Cl)cc1C` the T/C (dose: 12.5 mg/kg/injection, schedule: Q01DX009 (ip), vehicle: Klucel (hydroxypropylcellulose) (HPC)) was 101 % of control, the T/C (dose: 25.0 mg/kg/injection, schedule: Q01DX009 (ip), vehicle: Klucel (hydroxypropylcellulose) (HPC)) was 98 % of control and the T/C (dose: 50.0 mg/kg/injection, schedule: Q01DX009 (ip), vehicle: Klucel (hydroxypropylcellulose) (HPC)) was 104 % of control and 95 % of control.

With `C=C(C)C1CC/C(C)=C/CCC2(C)OC2CC/C(CO)=C\C1O` (stereo not drawn) the T/C (dose: 8.0 mg/kg/injection, schedule: Q01DX009 (ip), vehicle: saline with Tween-80) was 113 % of control, the T/C (dose: 16.0 mg/kg/injection, schedule: Q01DX009 (ip), vehicle: saline with Tween-80) was 114 % of control and the T/C (dose: 32.0 mg/kg/injection, schedule: Q01DX009 (ip), vehicle: saline with Tween-80) was 110 % of control. For the same compound, the T/C (dose: 64.0 mg/kg/injection, schedule: Q01DX009 (ip), vehicle: saline with Tween-80) was 115 % of control.

In the case of `Cc1cc(O)c(C(c2ccccn2)c2c(O)cc(C)[nH]c2=O)c(=O)[nH]1`, the T/C [1] is reported as 102 % of control, the T/C [2] is reported as 102 % of control and the T/C (dose: 200.0 mg/kg/injection, schedule: Q01DX009 (ip), vehicle: saline with Tween-80) is reported as 105 % of control.

For `O=C(N/N=C/c1ccccc1[OH2+])c1ccncc1.O=C(N/N=C/c1ccccc1[OH2+])c1ccncc1.[Cl-].[Mn+2]`, the T/C (dose: 100.0 mg/kg/injection, schedule: Q04DX002 (ip), vehicle: Klucel (hydroxypropylcellulose) (HPC)) was 112 % of control, the T/C (dose: 200.0 mg/kg/injection, schedule: Q04DX002 (ip), vehicle: Klucel (hydroxypropylcellulose) (HPC)) was 107 % of control and the T/C (dose: 400.0 mg/kg/injection, schedule: Q04DX002 (ip), vehicle: Klucel (hydroxypropylcellulose) (HPC)) was 94 % of control.

In the case of `c1ccc(COCC(COCc2ccccc2)(COCc2ccccc2)COCc2ccccc2)cc1`, the T/C (dose: 12.5 mg/kg/injection, schedule: Q01DX009 (ip), vehicle: saline + alcohol) is reported as 105 % of control, the T/C (dose: 25.0 mg/kg/injection, schedule: Q01DX009 (ip), vehicle: saline + alcohol) is reported as 104 % of control and the T/C (dose: 50.0 mg/kg/injection, schedule: Q01DX009 (ip), vehicle: saline + alcohol) is reported as 97 % of control.

For `O=S(=O)(O)C1CC2NC3C4CCCC(S(=O)(=O)O)C4C(Nc4ccccc4)CC3N(c3ccccc3)C2CC1Nc1ccccc1` (stereo not drawn), the T/C [3] was 112 % of control, the T/C [4] was 116 % of control and the T/C [5] was 116 % of control.

In the case of `C=C1C(=O)C23C(OC(=O)c4ccc(Br)cc4)C1CCC2C12COC3(O)C(O)C1C(C)(C)CCC2O` (stereo not drawn), the T/C (dose: 3.75 mg/kg/injection, schedule: Q01DX009 (ip), vehicle: saline with Tween-80) is reported as 105 % of control and 106 % of control, the T/C (dose: 7.5 mg/kg/injection, schedule: Q01DX009 (ip), vehicle: saline with Tween-80) is reported as 105 % of control and 111 % of control and the T/C (dose: 15.0 mg/kg/injection, schedule: Q01DX009 (ip), vehicle: saline with Tween-80) is reported as 111 % of control and 120 % of control. For the same compound, the T/C (dose: 30.0 mg/kg/injection, schedule: Q01DX009 (ip), vehicle: saline with Tween-80) was 119 % of control.

In the case of `CN1C(=O)C23SSC1(C)C(=O)N2c1ccccc1C3(C)C` (stereo not drawn), the T/C (dose: 12.5 mg/kg/injection, schedule: Q01DX009 (ip), vehicle: suspension in saline) is reported as 95 % of control, the T/C (dose: 25.0 mg/kg/injection, schedule: Q01DX009 (ip), vehicle: suspension in saline) is reported as 91 % of control and the T/C [3] is reported as 95 % of control.

In the case of `O=C1CCNC(=O)N1CN1CCc2ccccc2C1`, the T/C [6] is reported as 108 % of control, the T/C [7] is reported as 99 % of control and the T/C [8] is reported as 108 % of control.

With `C[n+]1ccc(/C=C/c2ccccc2O)cc1` the T/C (dose: 12.5 mg/kg/injection, schedule: Q01DX009 (ip), vehicle: saline) was 89 % of control, the T/C [9] was 94 % of control and the T/C [3] was 106 % of control. For the same compound, the T/C [4] was 117 % of control.

For `CC([CH2][Sn]([CH3])([Cl])[c]1ccccc1)c1ccccc1` (stereo not drawn), the T/C (dose: 12.5 mg/kg/injection, schedule: Q04DX003 (ip), vehicle: saline) was 98 % of control, the T/C (dose: 25.0 mg/kg/injection, schedule: Q04DX003 (ip), vehicle: saline) was 103 % of control and the T/C (dose: 50.0 mg/kg/injection, schedule: Q04DX003 (ip), vehicle: saline) was 94 % of control. The T/C [10] was 98 % of control.

With `CC1CC(C)(C)C(c2ccccc2)C(=O)O1` (stereo not drawn) the T/C (dose: 100.0 mg/kg/injection, schedule: Q04DX003 (ip), vehicle: Klucel (hydroxypropylcellulose) (HPC)) was 106 % of control, the T/C (dose: 200.0 mg/kg/injection, schedule: Q04DX003 (ip), vehicle: Klucel (hydroxypropylcellulose) (HPC)) was 100 % of control and the T/C (dose: 400.0 mg/kg/injection, schedule: Q04DX003 (ip), vehicle: Klucel (hydroxypropylcellulose) (HPC)) was 114 % of control.

For `C=Cn1c([N+](=O)[O-])cnc1/C=C/c1ccc(C(=O)OCCN2CCOCC2)cc1`, the T/C (dose: 25.0 mg/kg/injection, schedule: Q04DX002 (ip), vehicle: saline with Tween-80) was 101 % of control, the T/C (dose: 50.0 mg/kg/injection, schedule: Q04DX002 (ip), vehicle: saline with Tween-80) was 101 % of control and the T/C (dose: 100.0 mg/kg/injection, schedule: Q04DX002 (ip), vehicle: saline with Tween-80) was 103 % of control and 90 % of control.

With `CC(=O)Nc1nnc(-c2coc3ccccc3c2=O)s1` the T/C (dose: 60.0 mg/kg/injection, schedule: Q01DX005 (ip), vehicle: saline with Tween-80) was 91 % of control and the T/C (dose: 120.0 mg/kg/injection, schedule: Q01DX005 (ip), vehicle: saline with Tween-80) was 91 % of control.

`C=CC(CO)N1CC1` (stereo not drawn) was tested, and the T/C (dose: 0.78 mg/kg/injection, schedule: Q01DX009 (ip), vehicle: saline) was 108 % of control, the T/C (dose: 1.56 mg/kg/injection, schedule: Q01DX009 (ip), vehicle: saline) was 108 % of control and the T/C (dose: 3.13 mg/kg/injection, schedule: Q01DX009 (ip), vehicle: saline) was 108 % of control.

`CCCCCCc1cc(-c2cc(CCCCCC)nc(N)n2)nc(N)n1` was tested, and the T/C (dose: 60.0 mg/kg/injection, schedule: Q01DX005 (ip), vehicle: saline) was 100 % of control and the T/C (dose: 120.0 mg/kg/injection, schedule: Q01DX005 (ip), vehicle: saline) was 115 % of control.

With `Cc1cc2c(cc1C)-c1nn(-c3ccccc3)c(-c3ccc(Cl)cc3)c1CCO2` the T/C (dose: 12.5 mg/kg/injection, schedule: Q01DX005 (ip), vehicle: saline with Tween-80) was 92 % of control, the T/C (dose: 25.0 mg/kg/injection, schedule: Q01DX005 (ip), vehicle: saline with Tween-80) was 99 % of control and the T/C (dose: 50.0 mg/kg/injection, schedule: Q01DX005 (ip), vehicle: saline with Tween-80) was 93 % of control and 94 % of control.

In the case of `O=c1ccn(C2CC(O)C(CO)O2)c(=O)[nH]1` (stereo not drawn), the T/C (dose: 50.0 mg/kg/injection, schedule: Q01DX005 (ip), vehicle: Klucel (hydroxypropylcellulose) (HPC)) is reported as 100 % of control, the T/C (dose: 100.0 mg/kg/injection, schedule: Q01DX005 (ip), vehicle: Klucel (hydroxypropylcellulose) (HPC)) is reported as 101 % of control and the T/C (dose: 200.0 mg/kg/injection, schedule: Q01DX005 (ip), vehicle: Klucel (hydroxypropylcellulose) (HPC)) is reported as 106 % of control.

For `CCN(CCO)CC(C)Nc1ccc([N+](=O)[O-])c2sc3ccccc3c(=O)c12` (stereo not drawn), the T/C (dose: 25.0 mg/kg/injection, schedule: Q01DX009 (ip), vehicle: saline with Tween-80) was 159 % of control, the T/C [1] was 190 % of control and 213 % of control and the T/C (dose: 66.0 mg/kg/injection, schedule: Q04DX003 (ip), vehicle: saline with Tween-80) was 159 % of control. The T/C [2] was 100 % of control, the T/C [10] was 213 % of control and the T/C (dose: 150.0 mg/kg/injection, schedule: Q04DX003 (ip), vehicle: saline with Tween-80) was 118 % of control.

For `CC1Cc2c([nH]c(=O)n(-c3ccccc3)c2=S)O1` (stereo not drawn), the T/C (dose: 25.0 mg/kg/injection, schedule: Q01DX001 (ip), vehicle: Klucel (hydroxypropylcellulose) (HPC)) was 96 % of control, the T/C (dose: 50.0 mg/kg/injection, schedule: Q01DX001 (ip), vehicle: Klucel (hydroxypropylcellulose) (HPC)) was 112 % of control and the T/C (dose: 100.0 mg/kg/injection, schedule: Q01DX001 (ip), vehicle: Klucel (hydroxypropylcellulose) (HPC)) was 100 % of control.

`O=C1C(O)=C(O)C(=O)c2cc3c(cc21)OCO3` was tested, and the T/C [6] was 98 % of control, the T/C [7] was 102 % of control and the T/C [8] was 102 % of control.

For `O=C1c2ccccc2C(=O)c2cc3c(cc21)OCO3`, the T/C [6] was 88 % of control and the T/C [7] was 89 % of control.

`Cc1cc(C)c(S(=O)(=O)n2ccnc2)c(C)c1` was tested, and the T/C [9] was 111 % of control, the T/C [3] was 97 % of control and the T/C [4] was 103 % of control. For the same compound, the T/C [5] was 106 % of control.
